Laboratory results as given in patent publication US6835720B2, “Compounds having antiviral activity” (Nissin Food Products Co., Ltd., priority 1996, dated 2004).
Where two headings read alike, the source gives them in different places.

Experiments:
[1] = system: human T cells (H9 cell line); test: Cytotoxicity, viable cells counted by the MTT method; type: cell-based
Procedure: (§1) Samples of various concentrations (25 μl) are distributed into a 24-well microplate, immediately added with human T cells (H9 cell line, 1.2×10^5/ml) (1 ml), covered, and incubated at 37° C. for 1 h. Then, AIDS virus (HIV-1, IIIb, 100 TCID 50) (25 μl) is added to each well and thoroughly mixed, covered again, and incubated under the CO2 atmosphere at 37° C. for 3 days. On the fourth day, aliquots (200 μl) of the culture medium from each well are transferred into a fresh microplate. The growth medium (500 μl) is added to each well, and further incubated for 2 days.
(§2) On the 6th day, aliquots (90 μl) of the culture supernatant are withdrawn, and assayed the amount of p24, a constituent of HIV-1, by ELISA method using the anti-p24 antibody to assess the growth of said virus. Also, using the remaining cell culture suspension (100 μl), viable cells are counted by the MTT method. Experimental values are expressed as the ratios (%) to the negative control value (measured using the solvent to dissolve test compounds as the sample) to represent the anti-HIV activity and cytotoxicity. Then, for the unified representation of the anti-HIV activity and cytotoxicity, the concentrations of test compounds at their 50% values are obtained from the activity-concentration curves and the cytotoxicity-concentration, and represented as IC50 and CC50, respectively.

[2] = system: AIDS virus (HIV-1, IIIb); type: cell-based; conditions: HIV-1 IIIb in H9 cells, p24 in culture supernatant by ELISA on the 6th day
Procedure: as §1, §2

[3] = system: human plasma; test: Anti-coagulation activity in human plasma; conditions: calcium chloride, 37° C. for 30 min, judged with the naked eye

Compound | CC50 [1] | IC50 [2] | Minimum concentration exhibiting anticoagulant action [3] | CC50 ([1]; H9 cells, MTT method, 6th day, read-out: CC 50)
CCCCCCCC/C=C\CCCCCCCCOC1(C(=O)O)CC(OS(=O)(=O)O)C(NC(C)=O)C(C(OS(=O)(=O)O)C(COS(=O)(=O)O)OS(=O)(=O)O)O1 [Example 25, Sodium[oleyl 5-acetamido-3,5-dideoxy-4,7,8,9-tetra-O-(sodiumoxysulfonyl)-D-glycero-α-D-galacto-2-nonulopyranosid]onate] | > 200 µM | 100 µM | – | –
3-O-[Sodium{5-acetamido-3,5-dideoxy-4,7,8,9-tetra-O-(sodium oxysulfonyl)-D-glycero-α-D-galacto-2-nonulopyranosyl}onate]-1,2-di-O-tetradecyl-Sn-glycerol [Example 7] | > 200 µM | 16 µM | – | –
CCCCCCCCCCCCCCCCCCCCOCC(COC1(C(=O)O)CC(OS(=O)(=O)O)C(NC(C)=O)C(C(OS(=O)(=O)O)C(COS(=O)(=O)O)OS(=O)(=O)O)O1)OCCCCCCCCCCCCCCCCCCCC [Example 17, 3-O-[Sodium{5-acetamido-3,5-dideoxy-4,7,8,9-tetra-O-(sodiumoxysulfonyl)-D-glycero-α-D-galacto-2-nonulopyranosyl)onate]-1,2-di-O-eicosyl-Sn-glycerol] | > 20 µM | 2.5 µM | – | –
CCCCCCCCCCCCCCCCCCOCC(COC1(C(=O)O)CC(OS(=O)(=O)O)C(NC(C)=O)C(C(OS(=O)(=O)O)C(COS(=O)(=O)O)OS(=O)(=O)O)O1)OS(=O)(=O)O [Example 10, 3-O-[Sodium{5-acetamido-3,5-dideoxy-4,7,8,9-tetra-O-(sodiumoxysulfonyl)-D-glycero-α-D-galacto-2-nonulopyranosyl}onate]-2-O-(sodiumoxysulfonyl)-1-O-octadecyl-Sn-glycerol] | > 200 µM | 30 µM | – | –
Dextran sulfate [reference compound] | – | – | 0.5 µM | –
CCCCCCCCCCOCC(COC1(C(=O)O)CC(OS(=O)(=O)O)C(NC(C)=O)C(C(OS(=O)(=O)O)C(COS(=O)(=O)O)OS(=O)(=O)O)O1)OCCCCCCCCCC [Example 6, 3-O-[Sodium{5-acetamido-3,5-dideoxy4,7,8,9-tetra-O-(sodiumoxysulfonyl)-D-glycero-β-D-galacto-2-nonulopyranosyl}onate]-1,2-di-O-decyl-Sn-glycerol] | – | 50 µM | – | > 200 µM
CCCCCCCCCCCCCCCCCCCCCCOCC(COC1(C(=O)O)CC(OS(=O)(=O)O)C(OS(=O)(=O)O)C(C(OS(=O)(=O)O)C(COS(=O)(=O)O)OS(=O)(=O)O)O1)OCCCCCCCCCCCCCCCCCCCCCC [Example 41, 3-O-[Sodium{3-deoxy-4,5,7,8,9-penta-O-(sodiumoxysulfonyl)-D-glycero-α-D-galacto-2-nonulopyranosyl}onate]-1,2-di-O-docosyl-Sn-glycerol] | > 200 µM | 4 µM | – | –
1-[N-{5-Acetamido-3,5-dideoxy-2-O-methyl-4,7,8,9-tetra-O-(sodium oxysulfonyl)-D-glycero-β-D-galacto-2-nonulopyranosonyl}amino]-2,2-bis(docosyloxymethyl) propane [Example 59] | > 200 µM | 1.4 µM | – | –
CCCCCCCCCCCCCCCCCCCCOCC(C)(COCCCCCCCCCCCCCCCCCCCC)CO[C@]1(C(=O)O)C[C@H](OS(=O)(=O)O)[C@@H](NC(C)=O)[C@H]([C@H](OS(=O)(=O)O)[C@@H](COS(=O)(=O)O)OS(=O)(=O)O)O1 [Example 32, Sodium[2,2-bis(eicosyloxymethyl)propyl 5-acetamido-3,5-dideoxy-4,7,8,9-tetra-O-(sodiumoxysulfonyl)-D-glycero-α-D-galacto-2-nonulopyranosid)onate] | > 200 µM | 2.5 µM | – | –
CCCCCCCCCCCCCCCCCCO[C@]1(C(=O)O)C[C@H](OS(=O)(=O)O)[C@@H](NC(C)=O)[C@H]([C@H](OS(=O)(=O)O)[C@@H](COS(=O)(=O)O)OS(=O)(=O)O)O1 [Example 26, Sodium[octadecyl 5-acetamido-3,5-dideoxy-4,7,8,9-tetra-O-(sodiumoxysulfonyl)-D-glycero-α-D-galacto-2-nonulopyranosid)onate] | > 200 µM | 100 µM | – | –
CCCCCCCCCCOCC(COC1(C(=O)O)CC(OS(=O)(=O)O)C(NC(C)=O)C(C(OS(=O)(=O)O)C(COS(=O)(=O)O)OS(=O)(=O)O)O1)OCCCCCCCCCC [Example 5, 3-O-[Sodium{5-acetamido-3,5-dideoxy-4,7,8,9-tetra-O-(sodiumoxysulfonyl)-D-glycero-α-D-galacto-2-nonulopyranosyl}onate]-1,2-di-O-decyl-Sn-glycerol] | > 200 µM | 46 µM | – | –
3-S-[Sodium{5-acetamido-3,5-dideoxy-4,7,8,9-tetra-O-(sodium oxysulfonyl)-D-glycero-α-D-galacto-2-nonulopyranosyl}onate]-1,2-di-O-tetradecyl-Sn-thioglycerol [Example 14] | > 200 µM | 15 µM | – | –
CCCCCCCCCCCCCCCCCCCCCCOCC(CC)(COCCCCCCCCCCCCCCCCCCCCCC)COC1(C(=O)O)CC(OS(=O)(=O)O)C(NC(C)=O)C(C(OS(=O)(=O)O)C(COS(=O)(=O)O)OS(=O)(=O)O)O1 [Example 50, Sodium[2,2-bis(docosyloxymethyl)butyl 5-acetamido-3,5-dideoxy-4,7,8,9-tetra-O-(sodiumoxysulfonyl)-D-glycero-α-D-galacto-2-nonulopyranosid)onate] | > 200 µM | 1.1 µM | – | –
CCCCCCCCCCCCCCOCC(COC1(C(=O)O)CC(OS(=O)(=O)O)C(NC(C)=O)C(C(OS(=O)(=O)O)C(COS(=O)(=O)O)OS(=O)(=O)O)O1)OCCCCCCCCCCCCCC [Example 8, 3-O-[Sodium{5-acetamido-3,5-dideoxy-4,7,8,9-tetra-O-(sodiumoxysulfonyl)-D-glycerol-β-D-galacto-2-nonulopyranosyl}ornate]-1,2-di-O-tetradecyl-Sn-glycerol] | > 200 µM | 15 µM | – | –
CCCCCCCCCCCCCCCCCCCCCCOc1cc(OCCCCCCCCCCCCCCCCCCCCCC)cc(O[C@@]2(C(=O)O)C[C@H](OS(=O)(=O)O)[C@@H](NC(C)=O)[C@H]([C@H](OS(=O)(=O)O)[C@@H](COS(=O)(=O)O)OS(=O)(=O)O)O2)c1 [Example 35, Sodium[3,5-Didocosyloxyphenyl-5-acetamido-3,5-dideoxy-4,7,8,9-tetra-O-(sodiumoxysulfonyl)-D-glycero-β-D-galacto-2-nonulopyranosid)onate] | > 20 µM | 90 µM | – | –
CCCCCCCCCCCCCCCCCCCCCC(=O)OCC(COC1(C(=O)O)CC(OS(=O)(=O)O)C(NC(C)=O)C(C(OS(=O)(=O)O)C(COS(=O)(=O)O)OS(=O)(=O)O)O1)OC(=O)CCCCCCCCCCCCCCCCCCCCC [Example 38, 3-O-[Sodium{5-acetamido-3,5-dideoxy-4,7,8,9-tretra-O-(sodiumoxysulfonyl)-D-glycero-α-D-galacto-2-nonulopyranosyl}onate]-1,2-di-O-docosanoyl-Sn-glycerol] | > 200 µM | 2.5 µM | – | –
CC(=O)N[C@H]1[C@H]([C@H](OS(=O)(=O)O)[C@@H](COS(=O)(=O)O)OS(=O)(=O)O)O[C@@](O[C@H]2CC[C@@]3(C)C(=CC[C@H]4[C@@H]5CC[C@H]([C@H](C)CCCC(C)C)[C@@]5(C)CC[C@@H]43)C2)(C(=O)O)C[C@@H]1OS(=O)(=O)O [Example 24, 3β-[Sodium{5-acetamido-3,5-dideoxy-4,7,8,9-tetra-O-(sodiumoxysulfonyl)-D-glycero-α-D-galacto-2-nonulopyranosyl}onate]-5-cholestene] | > 200 µM | 34 µM | – | –
CCCCCCCCCCCCCCCCCCOC[C@H](CO[C@@]1(C(=O)O)C[C@H](OS(=O)(=O)O)[C@@H](NC(C)=O)[C@H]([C@H](OS(=O)(=O)O)[C@@H](COS(=O)(=O)O)OS(=O)(=O)O)O1)OS(=O)(=O)O [Example 11, 3-O-[Sodium{5-acetamido-3,5-dideoxy4,7,8,9-tetra-O-(sodiumoxysulfonyl)-D-glycero-β-D-galacto-2-nonulopyranosyl}onate]-2-O-(sodiumoxysulfonyl)-1-O-octadecyl-Sn-glycerol] | 200 µM | 13 µM | – | –
CCCCCCCCCCCCCCCCCCCCCCCCOCC(COC1(C(=O)O)CC(OS(=O)(=O)O)C(NC(C)=O)C(C(OS(=O)(=O)O)C(COS(=O)(=O)O)OS(=O)(=O)O)O1)OCCCCCCCCCCCCCCCCCCCCCCCC [Example 20, 3-O-[Sodium{5-acetamido-3,5-dideoxy-4,7,8,9-tetra-O-(sodiumoxysulfonyl)-D-glycero-α-D-galacto-2-nonulopyranosyl}onate]-1,2-di-O-tetracosyl-Sn-glycerol] | > 20 µM | 1.2 µM | – | –
CCCCCCCCCCCCCCCCCCOCC(COC1(C(=O)O)CC(OS(=O)(=O)O)C(NC(C)=O)C(C(OS(=O)(=O)O)C(COS(=O)(=O)O)OS(=O)(=O)O)O1)OCCCCCCCCCCCCCCCCCC [Example 9, 3-O-[Sodium{5-acetamido-3,5-dideoxy-4,7,8,9-tetra-O-(sodiumoxysulfonyl)-D-glycerol-α-D-galacto-2-nonulopyranosyl)onate]-1,2-di-O-octadecyl-Sn-glycerol] | > 200 µM | 3.8 µM | – | –
